Results published in patent US20250207131A1, “MODIFIED RNA AGENTS WITH REDUCED OFF-TARGET EFFECT” (Alnylam Pharmaceuticals, Inc., priority 2018, published 2025).
In the oligonucleotide strings, read from the 5' end, every base follows the letter of its sugar. An asterisk marks phosphorothioate; unmarked linkages are phosphodiester. Other units and linkages are bracketed, terminal groups are in braces. A string of capitals states the bases alone. [5'S-Me-N] = (S)-5'-C-methyl nucleoside (N: the base); d = 2'-deoxy (DNA); r = 2'-OH (RNA)

Key:
[1] = test system: phosphodiesterase II; experiment: Stability toward 5′-specific exonuclease (phosphodiesterase II); type: in vitro ADME; details: oligo 0.1 mg/mL, 50 mM NaOAc (pH 6.5), 10 mM MgCl2; for Half-lives (T1/2), ty2: Phosphodiesterase-II 500 mU/mL
Protocol: Stability of modified oligonucleotides toward 3′- or 5′-specific exonucleases: Oligonucleotides were prepared in a final concentration of 0.1 mg/mL in either 50 mM Tris (pH 7.2), 10 mM MgCl2 or 50 mM sodium acetate (pH 6.5), 10 mM MgCl2 for assessing the stability towards 3′- or 5′-specific exonucleases, respectively. The exonuclease (150 mU/mL SVPDE for 3′-stability or 500 mU/mL phosphodiesterase II for 5′-stability) was added immediately prior to analysis via IEX HPLC (dionex DNAPac PA200, 4×250 mm) using a gradient of 37-52% mobile phase (1 M NaBr, 20 mM sodium phosphate, pH 11, 15% MeCN; stationary phase: 20 mM sodium phosphate, 15% MeCN, pH 11) over 7.5 min with a flow of 1 mL/min. Samples were analyzed at given time points for up to 24 h. The quantity of full length oligonucleotides was determined as the area under the curve at A260. Percent full length oligonucleotides was calculated by dividing by the area under the curve at t=0 and multiplying by 100. Activity of enzyme was verified for each experiment by including a oligodeoxythymidylate with a terminal phosphorothioate linkage (5′-T19·T (SEQ ID NO: 708) or 5′-T·T19 (SEQ ID NO: 708) for 3′- or 5′-exonuclease activity, respectively). Each aliquot of enzyme was thawed just prior to the experiment. The half-life was determined by fitting to first order kinetics.
5′-Nuclease Stability:_To evaluate the 5′-exonuclease stability of enantiomerically pure (R)- and (S)-5′-C-methyl (C5′-Me) Guanosine substituted nucleosides a dT20 template sequence (“dT20” disclosed as SEQ ID NO: 1) was modified at the 5′-end with one modified nucleotide via PO or PS linkages (Table 13). The structures of the compounds are shown below with guanosine for comparison.
A dT20 template (“dT20” disclosed as SEQ ID NO: 1) having 5′end dT with PS linkages and 5′end Guanosine (G) with either PO or PS linkages were used as the control. ONs were incubated with Phosphodiesterase-II (500 mU/mL), and the half-life (T½) of each modified ON was determined by HPLC-based quantification of the full-length ON as a function of time. The results are summarized in Table 13 and HPLC stability profiles are depicted in FIGS. 24A and 24B showing decay curve of dT20 (SEQ ID NO: 1) modified at the 5′ end with Guanosine and (R) or (S)-5′-C-methyl Guanosine (C5′-MeG) with PO or PS linkages upon incubation with 5′ exonucleases-phosphodiesterase-II as a function of time. FIG. 24A is for the following conditions: a) enzyme conc. 500 mU/mL, Oligo Conc. 0.1 mg/mL, 50 mM NaOAc (pH-6.5):10 Mm MgCl2. FIG. 24B is for the following conditions: enzyme conc. 100 mU/mL, Oligo Conc. 0.1 mg/mL, 50 mM NaOAc (pH-6.5):10 mM MgCl2. The percentage full length ON is calculated by dividing the area under the peak corresponding to full length ON at a given time point by the full length at t=0 and multiplied by 100.
Stability of modified oligonucleotides toward 3′- or 5′-specific exonucleases: Modified oligonucleotides were prepared in a final concentration of 0.1 mg/mL in either 300 mM Tris (pH 7.2), 60 mM MgCl2 or 300 mM sodium acetate (pH 6.5), 60 mM MgCl2 for assessing the stability towards 3′- or 5′-specific exonucleases, respectively. […] Samples were analyzed at given time points for up to 24 h. The quantity of full length oligonucleotides was determined as the area under the curve at A260. Percent full length oligonucleotides was calculated by dividing by the area under the curve at t=0 and multiplying by 100. […]

[2] = target: Pol-RMT (Homo sapiens, UniProt O00411); experiment: Triphosphate incorporation assay by Pol-RMT; type: biochemical; details: 200 nM template, 50 nM primer, 300 nM enzyme, 1 mM or 100 μM NTPs, 30 min, 35° C.
Protocol: (§1) 5′-(R)- and (S)—C-Me-guanosine triphosphate Evaluations: 5′-(R)- and (S)—C-Me-guanosine triphosphate were evaluated with Pol-RMT and DNA Pol-γ. Mitochondrial toxicity is a common feature with nucleoside analog drugs (liver/metabolic effects, myopathies, peripheral neuropathy). Replication of mitochondria occurs during all phases of cell cycle, including post-mitotic cells. Mito replication in post-mitotic cells becomes preferential consumer of endogenous nucleotide pools. Mitochondrial polymerases (pol-γ, Pol-RMT) have limited exonuclease (proofreading) capability. Alterations/effects to nuclear DNA more likely to manifest in other test systems. […] Analytical IEX-HPLC with fluorescence detection for optimal resolution of primer-extended products is used to detect—especially important in competition mixtures. This assays was applied for the assessment of incorporation efficiencies.
The reaction conditions were; 200 nM template, 50 nM primer, 300 nM enzyme and 1 mM or 100 μM NTPs, 30 min, 35° C.

[3] = target: T1, DNA Pol-γ (Homo sapiens, UniProt P54098); experiment: Triphosphate incorporation assay by DNA Pol-γ; type: biochemical; details: 100 nM template, 100 nM primer, 40 Units of enzyme, 1 mM or 100 μM dNTPs, 30 min, 37° C.
T1 sequence (P54098 1-1239): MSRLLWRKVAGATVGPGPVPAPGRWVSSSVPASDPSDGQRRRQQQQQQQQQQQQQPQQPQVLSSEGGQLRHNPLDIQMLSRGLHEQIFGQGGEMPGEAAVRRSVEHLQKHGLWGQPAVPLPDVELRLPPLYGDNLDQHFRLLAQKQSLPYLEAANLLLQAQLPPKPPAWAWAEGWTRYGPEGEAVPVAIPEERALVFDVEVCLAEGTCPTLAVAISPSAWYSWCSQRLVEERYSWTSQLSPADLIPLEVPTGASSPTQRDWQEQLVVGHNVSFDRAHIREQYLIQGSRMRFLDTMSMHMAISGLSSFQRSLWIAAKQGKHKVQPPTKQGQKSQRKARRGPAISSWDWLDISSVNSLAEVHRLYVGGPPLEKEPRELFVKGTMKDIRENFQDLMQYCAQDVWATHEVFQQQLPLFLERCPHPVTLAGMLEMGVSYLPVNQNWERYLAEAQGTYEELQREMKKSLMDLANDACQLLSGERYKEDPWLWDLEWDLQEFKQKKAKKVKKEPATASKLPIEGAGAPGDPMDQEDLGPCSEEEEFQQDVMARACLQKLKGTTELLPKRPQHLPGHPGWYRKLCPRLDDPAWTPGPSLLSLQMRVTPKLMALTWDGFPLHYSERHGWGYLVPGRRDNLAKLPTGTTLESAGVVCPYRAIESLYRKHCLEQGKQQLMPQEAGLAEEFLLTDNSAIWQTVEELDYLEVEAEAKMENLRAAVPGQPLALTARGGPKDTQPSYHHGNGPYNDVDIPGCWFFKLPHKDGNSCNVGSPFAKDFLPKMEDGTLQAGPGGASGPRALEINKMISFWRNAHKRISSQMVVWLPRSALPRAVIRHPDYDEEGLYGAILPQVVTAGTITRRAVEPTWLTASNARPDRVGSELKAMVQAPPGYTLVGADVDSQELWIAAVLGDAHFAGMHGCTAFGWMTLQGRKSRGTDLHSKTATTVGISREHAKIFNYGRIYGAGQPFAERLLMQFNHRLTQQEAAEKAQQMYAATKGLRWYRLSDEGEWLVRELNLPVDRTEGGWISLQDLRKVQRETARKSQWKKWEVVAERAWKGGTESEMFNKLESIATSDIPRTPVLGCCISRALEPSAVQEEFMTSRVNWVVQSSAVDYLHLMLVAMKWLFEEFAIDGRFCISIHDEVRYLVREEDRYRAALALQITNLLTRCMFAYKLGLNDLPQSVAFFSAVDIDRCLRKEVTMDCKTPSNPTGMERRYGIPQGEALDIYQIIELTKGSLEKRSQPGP
Protocol: as §1
The reaction conditions were: Reaction: 100 nM template, 100 nM primer, 40 Units of enzyme and 1 mM or 100 μM dNTPs, 30 min, 37° C.; diluted to 5 nM primer and analyzed by FLD-IEX-HPLC (Ex: 437, Em: 483 nm).

Pol-RMT, sequence (O00411 42-1230, species assumed): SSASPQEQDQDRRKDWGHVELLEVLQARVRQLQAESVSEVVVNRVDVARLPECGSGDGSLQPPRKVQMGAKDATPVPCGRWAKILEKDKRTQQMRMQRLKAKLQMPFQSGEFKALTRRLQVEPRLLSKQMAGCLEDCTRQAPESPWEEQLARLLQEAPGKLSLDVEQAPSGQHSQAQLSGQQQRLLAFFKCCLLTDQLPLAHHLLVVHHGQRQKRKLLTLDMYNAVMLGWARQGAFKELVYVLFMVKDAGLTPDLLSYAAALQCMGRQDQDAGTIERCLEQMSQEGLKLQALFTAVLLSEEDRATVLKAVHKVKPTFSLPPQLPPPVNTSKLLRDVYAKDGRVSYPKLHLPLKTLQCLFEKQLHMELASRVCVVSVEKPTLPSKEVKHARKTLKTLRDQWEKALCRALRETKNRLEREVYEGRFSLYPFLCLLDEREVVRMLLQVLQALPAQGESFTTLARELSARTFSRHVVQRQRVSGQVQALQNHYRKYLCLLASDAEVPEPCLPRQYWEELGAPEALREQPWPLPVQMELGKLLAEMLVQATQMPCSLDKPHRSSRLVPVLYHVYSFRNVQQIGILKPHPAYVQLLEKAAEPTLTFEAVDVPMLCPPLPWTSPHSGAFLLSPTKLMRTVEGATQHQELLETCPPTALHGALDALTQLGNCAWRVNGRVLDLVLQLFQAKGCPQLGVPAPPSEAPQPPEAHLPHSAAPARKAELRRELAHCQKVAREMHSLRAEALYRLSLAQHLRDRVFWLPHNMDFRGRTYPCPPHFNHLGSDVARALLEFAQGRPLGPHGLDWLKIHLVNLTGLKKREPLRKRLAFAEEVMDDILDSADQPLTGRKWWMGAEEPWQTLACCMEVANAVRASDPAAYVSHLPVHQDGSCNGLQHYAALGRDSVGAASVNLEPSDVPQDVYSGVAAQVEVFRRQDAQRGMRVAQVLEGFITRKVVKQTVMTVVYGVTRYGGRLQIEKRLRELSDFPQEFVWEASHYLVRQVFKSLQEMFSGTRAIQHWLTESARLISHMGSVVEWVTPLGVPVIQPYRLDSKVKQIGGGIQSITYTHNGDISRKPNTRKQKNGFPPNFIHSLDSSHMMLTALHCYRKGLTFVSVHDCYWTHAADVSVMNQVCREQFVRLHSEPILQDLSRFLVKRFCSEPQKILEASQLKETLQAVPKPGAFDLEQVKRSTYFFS

Compound	Half-lives (T1/2), ty2 [1]	incorporation by Pol-RMT [2]	incorporation by Pol-γ [3]	Half-lives (T1/2), t12 ([1]; reduced Phosphodiesterase-II concentration 100 mU/mL)
GpsdT19: Gs(dT)19, 5′ guanosine, PS linkage (DNA rG*dTdTdTdTdTdTdTdTdTdTdTdTdTdTdTdTdTdTdT)	41 h	–	–	–
C[C@H](OP(=O)(O)OP(=O)(O)OP(=O)(O)O)[C@H]1O[C@@H](n2cnc3c(=O)[nH]c(N)nc32)[C@H](O)[C@@H]1O [5′-(S)—C-Me-G triphosphate (GTP), 5′-(S)—C-Me-guanosine triphosphate]	–	incorporates in Pol-RMT at high concentrations	Neither 5′-(S) nor (R)—C-Me-Gtp incorporate in Pol-γ at high concentrations	–
SpodT19: (G5m)(dT)19, 5′-end (S)-5′-C-methyl guanosine, PO linkage ([5'S-Me-G]dTdTdTdTdTdTdTdTdTdTdTdTdTdTdTdTdTdTdT)	<1 h	–	–	<1 h
C[C@@H](OP(=O)(O)OP(=O)(O)OP(=O)(O)O)[C@H]1O[C@@H](n2cnc3c(=O)[nH]c(N)nc32)[C@H](O)[C@@H]1O [5′-(R)—C-Me-GTP, 5′-(R)—C-Me-guanosine triphosphate]	–	appears not incorporate in Pol-RMT	Neither 5′-(S) nor (R)—C-Me-Gtp incorporate in Pol-γ at high concentrations	–
